From ChEMBL document CHEMBL6134788, “Development of naphthalimide hydrazide derivatives as potent antibacterial agents against carbapenem-resistant A. baumannii” (RSC Med Chem, 2024)
≈ marks a conversion by molar mass, not a printed value. Calls of active or inactive are those of the source. No cut-off for these calls is given here.

Tests used:
Escherichia coli = assay: Antibacterial activity against Escherichia coli ATCC 25922 assessed as inhibition of bacterial growth incubated for 16 to 18 hrs by CLSI protocol based method; format: functional; details: time 16-18 hrs, read-out: MIC100
Acinetobacter baumannii [1] = assay: Antibacterial activity against carbapenem-resistant Acinetobacter baumannii BAA 1605 assessed as inhibition of bacterial growth incubated for 16 to 18 hrs by CLSI protocol based method; format: functional; details: time 16-18 hrs, read-out: MIC100
Acinetobacter baumannii [2] = assay: Antibacterial activity against multi-drug resistant Acinetobacter baumannii clinical isolate 2 assessed as inhibition of bacterial growth incubated for 16 to 18 hrs by CLSI protocol based method; format: functional; details: time 16-18 hrs, read-out: MIC100
Acinetobacter baumannii [3] = assay: Antibacterial activity against multi-drug resistant Acinetobacter baumannii clinical isolate 3 assessed as inhibition of bacterial growth incubated for 16 to 18 hrs by CLSI protocol based method; format: functional; details: time 16-18 hrs, read-out: MIC100
Acinetobacter baumannii [4] = assay: Antibacterial activity against multi-drug resistant Acinetobacter baumannii NR-17777 assessed as inhibition of bacterial growth incubated for 16 to 18 hrs by CLSI protocol based method; format: functional; details: time 16-18 hrs, read-out: MIC100
Acinetobacter baumannii [5] = assay: Antibacterial activity against multi-drug resistant Acinetobacter baumannii 5-109 assessed as inhibition of bacterial growth incubated for 16 to 18 hrs by CLSI protocol based method; format: functional; details: time 16-18 hrs, read-out: MIC100
Acinetobacter baumannii [6] = assay: Antibacterial activity against multi-drug resistant Acinetobacter baumannii 5-189 assessed as inhibition of bacterial growth incubated for 16 to 18 hrs by CLSI protocol based method; format: functional; details: time 16-18 hrs, read-out: MIC100
Acinetobacter baumannii [7] = assay: Antibacterial activity against multi-drug resistant Acinetobacter baumannii Naval-17 assessed as inhibition of bacterial growth incubated for 16 to 18 hrs by CLSI protocol based method; format: functional; details: time 16-18 hrs, read-out: MIC100
Acinetobacter baumannii [8] = assay: Antibacterial activity against carbapenem-resistant Acinetobacter baumannii BAA 1605 assessed as inhibition of bacterial growth incubated 24 hrs in presence of levofloxacin by checkerboard method; format: functional
Acinetobacter baumannii [9] = assay: Antibacterial activity against carbapenem-resistant Acinetobacter baumannii BAA 1605 assessed as inhibition of bacterial growth incubated 24 hrs in presence of minocycline by checkerboard method; format: functional
Acinetobacter baumannii [10] = assay: Antibacterial activity against carbapenem-resistant Acinetobacter baumannii BAA 1605 assessed as inhibition of bacterial growth by measuring levofloxacin MIC incubated 24 hrs by checkerboard method; format: functional
Acinetobacter baumannii [11] = assay: Antibacterial activity against carbapenem-resistant Acinetobacter baumannii BAA 1605 assessed as inhibition of bacterial growth by measuring minocycline MIC incubated 24 hrs by checkerboard method; format: functional
Acinetobacter baumannii [12] = assay: Antibacterial activity against carbapenem-resistant Acinetobacter baumannii BAA 1605 assessed as inhibition of bacterial growth by measuring polymyxin B MIC incubated 24 hrs by checkerboard method; format: functional
Acinetobacter baumannii [13] = assay: Synergistic antibacterial activity against carbapenem-resistant Acinetobacter baumannii BAA 1605 assessed as inhibition of bacterial growth by measuring tobramycin MIC incubated 24 hrs by checkerboard method; format: functional
Acinetobacter baumannii [14] = assay: Antibacterial activity against carbapenem-resistant Acinetobacter baumannii BAA 1605 assessed as inhibition of bacterial growth by measuring fractional inhibitory concentration incubated 24 hrs in presence of amikacin by checkerboard method; format: functional
Acinetobacter baumannii [15] = assay: Antibacterial activity against carbapenem-resistant Acinetobacter baumannii BAA 1605 assessed as inhibition of bacterial growth by measuring fractional inhibitory concentration incubated 24 hrs in presence of polymyxin B by checkerboard method; format: functional
Acinetobacter baumannii [16] = assay: Antibacterial activity against carbapenem-resistant Acinetobacter baumannii BAA 1605 assessed as minocycline MIC by measuring fractional inhibitory concentration incubated 24 hrs by checkerboard method relative to minocycline alone; format: functional
Acinetobacter baumannii [17] = assay: Antibacterial activity against carbapenem-resistant Acinetobacter baumannii BAA 1605 assessed as polymyxin B MIC by measuring fractional inhibitory concentration incubated 24 hrs by checkerboard method relative to polymyxin B alone; format: functional
Acinetobacter baumannii [18] = assay: Antibacterial activity against carbapenem-resistant Acinetobacter baumannii BAA 1605 assessed as tobramycin MIC by measuring fractional inhibitory concentration incubated 24 hrs by checkerboard method relative to tobramycin alone; format: functional
Acinetobacter baumannii [19] = assay: Antibacterial activity against carbapenem-resistant Acinetobacter baumannii BAA 1605 assessed as reduction in bacterial growth incubated for 24 hrs by time-kill kinetics analysis; format: functional, organism-based
Acinetobacter baumannii [20] = assay: Synergistic antibacterial activity against carbapenem-resistant Acinetobacter baumannii BAA 1605 assessed as reduction in bacterial growth measured within 24 hrs in presence of tobramycin by time-kill kinetics analysis; format: functional, organism-based

O=C(CCN1C(=O)c2cccc3cccc(c23)C1=O)NNc1ccc(Br)cc1
MIC (Escherichia coli): > 64 µg/mL
MIC (Acinetobacter baumannii [1]): 0.5 µg/mL (≈ 1.14 µM)
MIC (Acinetobacter baumannii [2]): 0.5 µg/mL (≈ 1.14 µM)
MIC (Acinetobacter baumannii [3]): 0.25 µg/mL (≈ 0.57 µM)
MIC (Acinetobacter baumannii [4]): 0.5 µg/mL (≈ 1.14 µM)
MIC (Acinetobacter baumannii [5]): 0.5 µg/mL (≈ 1.14 µM)
MIC (Acinetobacter baumannii [6]): 0.5 µg/mL (≈ 1.14 µM)
MIC (Acinetobacter baumannii [7]): 1 µg/mL (≈ 2.28 µM)
MIC (Acinetobacter baumannii [8]): 1 µg/mL
MIC (Acinetobacter baumannii [9]): 1 µg/mL
MIC (Acinetobacter baumannii [10]): 8 µg/mL
MIC (Acinetobacter baumannii [11]): 4 µg/mL
MIC (Acinetobacter baumannii [12]): 0.25 µg/mL
MIC (Acinetobacter baumannii [13]): 1 µg/mL
FIC (Acinetobacter baumannii [14]): 0.25
FIC (Acinetobacter baumannii [15]): 0.25
FIC (Acinetobacter baumannii [16]): 1
FIC (Acinetobacter baumannii [17]): 0.5
FIC (Acinetobacter baumannii [18]): 0.25
Activity (Acinetobacter baumannii [19]): inactive
Activity (Acinetobacter baumannii [20]): Active
